Test results as given in paper PMC7777204, “Locking mixed-lineage kinase domain-like protein in its auto-inhibited state prevents necroptosis” (Proceedings of the National Academy of Sciences of the …, 2020).
pIC50: −log10 of the molar value.

What was measured:
U937 cells = test: U937 cytotox assay; type: cell-based; settings: Homo sapiens, U-937, without huTNFα and zVAD-fmk, read-out: U937 TOX IC50
Protocol: MLKL antagonists were also evaluated in a necroptosis assay with U937 cells ([26]) (ATCC catalog no. CRL-1593.2). The assay procedure with U937 cells was as described for the Jurakt FADD^−/− necroptosis assay with the following modifications: 8,000 cells were seeded per well, and, in addition to the recombinant huTNFα, cells were also incubated in the presence of 10 µM (f.c.) carbobenzoxy-valyl-alanyl-aspartyl-[O-methyl]-fluoromethylketone (zVAD-fmk) (Enzo Life Sciences catalog no. ALX-260-020). Low controls (0% CTL) were defined as cells treated with 100 ng/mL recombinant huTNFα plus 10 µM zVAD-fmk.
MLKL antagonists were tested in cytotox assays by using Jurkat FADD^−/− and U937 cells according to the assay procedures described for the necroptosis assays, but without treatment with recombinant huTNFα and/or zVAD-fmk. High controls (100% CTL, no effect) were defined as cells treated with DMSO, and low controls (0% CTL) were defined as medium without cells (0% CTL, maximal effect).
All cellular assays were done for Cpd 1, Cpd 2, Cpd 3, Cpd 4, and Cpd 5 in duplicate and in quadruplet for NSA.

[1] = molecular target: T1, human MLKL executioner domain (WT) (Homo sapiens, UniProt Q8NB16); test: Functional NMR assay (detachment of α-helix 6), WT; type: biochemical; settings: WT
T1 construct: 80 µM MLKL N-terminal executioner domain (residues 1 to 154) was used; GST (thrombin cleavage site) (cleaved yes)
T1 sequence (Q8NB16 1-154): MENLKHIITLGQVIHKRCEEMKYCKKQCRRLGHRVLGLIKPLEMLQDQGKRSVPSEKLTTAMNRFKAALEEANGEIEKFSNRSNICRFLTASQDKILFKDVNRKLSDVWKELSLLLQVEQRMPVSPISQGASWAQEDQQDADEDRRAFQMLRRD
Description: To test the significance of the additional interaction between α-helix 6 and the four-helix bundle provided by the xanthine compounds stacking to the phenyl ring of Phe148, we used a described functional NMR assay ([12]). Binding of phytic acid (IP6) and the detergent β-D-nonylmaltoside (NM) led to the detachment of α-helix 6, which can be monitored in ^1H,^15N-correlation spectra by the altered chemical shift of the Hε1–Nε1 correlation of Trp133 and the backbone N–H correlation of Ala141 ([12]). […] Adding 12 mM NM or 500 µM IP6 led to the appearance of a second very weak peak reporting on the detached α-helix 6 with a population of the activated state (pact) of 1% and 4%, respectively (Fig. 3). […] Combining 12 mM NM and 500 µM IP6 induced a dramatic increase of the population of the detached state (pact 86%). […] To further validate the importance of the π–π stacking interaction between the xanthine and Phe148 in α-helix 6, we carried out the functional NMR assay with the F148A-mutated variant of MLKL. The removal of the phenyl group induced significant CSPs localized in close proximity to the mutation site, due to the removal of ring currents and, therefore, strong electronic changes. […] MLKL F148A was more sensitive to the addition of 12 mM NM, 500 µM IP6, or the combination thereof. In the spectra in the presence of NM and the combination of NM and IP6, a third Trp133 peak appeared, most likely reporting on a state similar to the active state. […] Thus, the stacking interaction of the xanthine core to Phe148 is vital for the inhibitory activity of these MLKL inhibitors.
Fig. 3. (A and B) The region of the NMR ^1H,^15N-correlation spectra of the MLKL executioner domain (protein concentration: 80 µM) containing the cross-peaks of Trp133 Nε1–Hε1 in the auto-inhibited state where α-helix 6 is attached to the four-helix bundle (inact. state) and in the active, detached state (act. state) are shown. The unliganded state is depicted in black, with 12 mM NM in cyan; 500 µM IP6 in orange; 500 µM Cpd 3 in blue; 12 mM NM and 500 µM IP6 in red; and 12 mM NM, 500 µM IP6, and 500 µM Cpd 3 in green. The spectra depicted in A are measured with the WT protein and in B with the F148A variant. […] Dark gray bars correspond to the WT, while light gray bars correspond to the F148A variant. The asterisk means that no active conformation could be detected. Double asterisks indicate data not determined.
For the functional NMR assay ^1H,^15N-correlation spectra were recorded on a Bruker Avance III HD 600-MHz NMR spectrometer equipped with a cryogenic QCI probe in 2.5-mm NMR tubes at 298 K. Spectra were recorded with 64 complex points in the indirect dimension, 96 scans, and an interscan delay of 2 s. For the samples, 80 µM MLKL N-terminal executioner domain (residues 1 to 154) was used in a 20 mM sodium phosphate buffer at pH 7.5 containing 150 mM sodium chloride and 1 mM TCEP. For the different conditions, either 500 µM IP6, 12 mM NM, or a combination of the two were used. The xanthine compounds were tested at 500 µM, while NSA, due to limited solubility, was tested only at 200 µM, which is sufficient to saturate MLKL. Spectra were analyzed, and peaks were integrated in CcpNnmr analysis ([39]).

Cn1c(=O)c2c(nc(S(C)(=O)=O)n2C)n(CC#Cc2cccc(O)c2)c1=O [Cpd 3]
pIC50 (U937 cells): 4.59
Population of the activated state (pact), α-helix 6 detached ([1]; 80 µM protein, 12 mM NM + 500 µM IP6 + 500 µM compound, without compound pact 86%): 19%
Induction of the active state by compound alone ([1]; compound alone (Cpd 3 500 µM, NSA 200 µM), no NM/IP6): did not induce the active state
